From publication PMC4077772, “Evolutionary Origin of GnIH and NPFF in Chordates: Insights from Novel Amphioxus RFamide Peptides” (PLoS ONE, 2014)
Where no end group is shown, it is not given here.

Tests used:
[1] = tested on: amphioxus PQRFa-R1; experiment: FSK-induced CRE-luciferase reporter assay, COS-7 cells transfected with amphioxus PQRFa-R1; assay type: cell-based, Branchiostoma japonicum; settings: 6 h, COS-7 cells with PQRFa-R1, tested 10^−10−10^−6 M, dual-luciferase, fold activation over basal, mean ± SEM (n=4−6), Figure 6
Procedure: COS-7 cells were maintained in Dulbecco's modified Eagle's medium (DMEM; GIBCO/Invitrogen, Carlsbad, CA) supplemented with high glucose (4.5 g/L) containing 10% fetal bovine serum (GIBCO/Invitrogen) and 1% penicillin/streptomycin antibiotics (GIBCO/Invitrogen) in a humidified 5% CO2 atmosphere at 37°C. For luciferase assay, COS-7 cells were plated in 24-well plates and grown to 70–80% confluence for 24 h before transfection. Cells were then co-transfected with 200 ng of p3XFLAG-CMV-14 expression vector (Sigma-Aldrich Co., St Louis, MO) containing the amphioxus PQRFa-R1, PQRFa-R2, or empty vector, 200 ng of the pGL4.29[luc2P/CRE/Hygro] […] Cell extracts were prepared, and luciferase activity was measured using the dual-luciferase reporter assay system (Promega). […] Statistical significance was assessed by Prism statistical software (GraphPad Software Inc., La Jolla, CA). […]
Figure 5 Effect of amphioxus PQRFa peptides on forskolin (FSK)-induced or basal CRE-luciferase activity. […] The effect of amphioxus PQRFa peptides on basal CRE-luciferase activity was also tested in COS-7 cells transfected with amphioxus PQRFa-R1 or R2.The relative luciferase activity was measured from cell lysates and expressed as fold activation over the respective basal levels. […]

[2] = tested on: CRE-luciferase activity; settings: ref [41]; cited from earlier work
Excerpt: (§1) We conducted in vitro assays to analyze whether the amphioxus PQRFa peptides have a biological activity.

[3] = tested on: cAMP levels; settings: ref [42]; cited from earlier work
Excerpt: as §1

[4] = tested on: pituitary; settings: lamprey GnIH; ref [24]; cited from earlier work
Excerpt: as §1

GRDQGWRPQRF-NH2 [PQRFa-3]
inhibition of FSK-induced CRE-luciferase activity (dose-dependent study) ([1]; 10^−6 M peptide): inhibited FSK-induced CRE-luciferase activity | inhibition of FSK-induced CRE-luciferase activity (dose-dependent study) ([1]; 10^−7 M peptide): inhibited FSK-induced CRE-luciferase activity

FLFQPQRFamide [NPFF, pain modulatory neuropeptide with a C-terminal Pro-Gln-Arg-Phe-NH2 motif]
effect on FSK-stimulated CRE-luciferase activity [2]: inhibited FSK-stimulated CRE-luciferase activity | effect on cAMP levels [3]: inhibited cAMP levels

SEPFWHRTRPQRF-NH2 [Lamprey GnIH (LPXRFa peptide-2), lamprey GnIH ortholog]
effect on expression of GTHβ mRNA in the pituitary [4]: increased the expression of GTHβ mRNA
